Drawing on the supplement of paper PMC10307832, this text covers relative viability for eight cell lines.

Assay in all cases: relative viability (nuclei count vs DMSO), 5 days (fraction); higher = more cells survive
Compound in the experiment “RO-3306 + Bortezomib”: C1=CC2=C(C=CC(=C2)C=C3C(=O)NC(=NCC4=CC=CS4)S3)N=C1 [RO-3306] + CC(C)C[C@H](NC(=O)[C@H](Cc1ccccc1)NC(=O)c1cnccn1)B(O)O [Bortezomib] (partner 0.002 µM)
The procedure, abridged:
(§1)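 Nuclei were stained with Hoechst during a one-step fixation (final 0.05% Triton X-100, 1% formaldehyde, 1 ug/ml Hoechst) carried out 5 days after dosing, then counted on 4× images. The cells, lung cancer lines in 1536-well plates, had been dosed by pin tool the day after seeding with one drug alone or a fixed anchor-drug dose plus five library-drug doses (not always all listed) in √10 steps. Relative viability is the nuclei count in treated wells divided by that in vehicle wells, and each value is the median of duplicate plates.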

Compound in experiment [1]: O=S(=O)(c1ccccc1)N(CC(F)(F)F)c1ccc(C(O)(C(F)(F)F)C(F)(F)F)cc1 + CC(C)C[C@H](NC(=O)[C@H](Cc1ccccc1)NC(=O)c1cnccn1)B(O)O [Bortezomib] (partner 0.002 µM)
The essentials:
as §1

Compound in experiment [2]: O=S(=O)(c1ccccc1)N(CC(F)(F)F)c1ccc(C(O)(C(F)(F)F)C(F)(F)F)cc1 + CCNC(=O)c1noc(-c2cc(C(C)C)c(O)cc2O)c1-c1ccc(CN2CCOCC2)cc1 [Luminespib] (partner 0.01 µM)
The procedure, abridged: as §1

Compound in experiment [3]: O=S(=O)(c1ccccc1)N(CC(F)(F)F)c1ccc(C(O)(C(F)(F)F)C(F)(F)F)cc1 + COc1cc2c(Oc3ccc(NC(=O)C4(C(=O)Nc5ccc(F)cc5)CC4)cc3F)ccnc2cc1OCCCN1CCOCC1 [Foretinib] (partner 0.25 µM)
The essentials: as §1

Compound in experiment [4]: O=S(=O)(c1ccccc1)N(CC(F)(F)F)c1ccc(C(O)(C(F)(F)F)C(F)(F)F)cc1 + Cc1nc(Nc2ncc(C(=O)Nc3c(C)cccc3Cl)s2)cc(N2CCN(CCO)CC2)n1 [Dasatinib] (partner 0.075 µM)
The essentials:
as §1

For the cell line NCI-H1915, the relative viability stood at 1.07 with RO-3306 + Bortezomib (first compound 0.01 µM); 0.895 in the experiment with RO-3306 + Bortezomib (first compound 0.03162 µM); 1.09 in the experiment with RO-3306 + Bortezomib (first compound 0.1 µM); 1.01 in the experiment with RO-3306 + Bortezomib (first compound 0.3162 µM); 0.488 with RO-3306 + Bortezomib (first compound 1 µM); 1.08 in experiment [1] (first compound 0.8 µM). Moreover, the relative viability in experiment [1] (first compound 2.53 µM) was determined as 0.964; in experiment [1] (first compound 8 µM), 0.974; in experiment [2] (first compound 0.8 µM), 0.813; in experiment [2] (first compound 2.53 µM), 0.776; in experiment [2] (first compound 8 µM), 0.786; in experiment [3] (first compound 0.8 µM) it was 1.1. For the same cell line, the relative viability in experiment [3] (first compound 2.53 µM) came to 1.03; in experiment [3] (first compound 8 µM), 1.1; in experiment [4] (first compound 0.8 µM) it was 0.284; in experiment [4] (first compound 2.53 µM), 0.276; in experiment [4] (first compound 8 µM), 0.291.
Take NCI-H1975: the relative viability is 0.468 with RO-3306 + Bortezomib (first compound 0.01 µM); 0.358 with RO-3306 + Bortezomib (first compound 0.03162 µM); 0.343 with RO-3306 + Bortezomib (first compound 0.1 µM); 0.417 with RO-3306 + Bortezomib (first compound 0.3162 µM); 0.243 with RO-3306 + Bortezomib (first compound 1 µM); 0.327 in experiment [1] (first compound 0.8 µM). For the same cell line, the relative viability in experiment [1] (first compound 2.53 µM) amounted to 0.415; in experiment [1] (first compound 8 µM) it was 0.299; in experiment [2] (first compound 0.8 µM), 0.205; in experiment [2] (first compound 2.53 µM), 0.201; in experiment [2] (first compound 8 µM) it was 0.311; in experiment [3] (first compound 0.8 µM), 1.11. For the same cell line, the relative viability in experiment [3] (first compound 2.53 µM) is 1.01; in experiment [3] (first compound 8 µM), 1.13; in experiment [4] (first compound 0.8 µM), 0.353; in experiment [4] (first compound 2.53 µM), 0.339; in experiment [4] (first compound 8 µM), 0.298.
As to NCI-H1993, the relative viability with RO-3306 + Bortezomib (first compound 0.03162 µM) was determined as 1.11; with RO-3306 + Bortezomib (first compound 0.1 µM) it was 1.02; in the experiment with RO-3306 + Bortezomib (first compound 0.3162 µM) it was 0.887; with RO-3306 + Bortezomib (first compound 1 µM) it was 0.777; in experiment [1] (first compound 0.8 µM), 1.12; in experiment [1] (first compound 2.53 µM), 0.824. Further, the relative viability in experiment [1] (first compound 8 µM) is 1.03; in experiment [2] (first compound 0.8 µM), 0.874; in experiment [2] (first compound 2.53 µM), 0.577; in experiment [2] (first compound 8 µM), 0.721; in experiment [3] (first compound 0.8 µM) it was 0.681; in experiment [3] (first compound 2.53 µM), 0.726. Besides, the relative viability in experiment [3] (first compound 8 µM) turned out to be 0.679; in experiment [4] (first compound 0.8 µM), 0.451; in experiment [4] (first compound 2.53 µM), 0.441; in experiment [4] (first compound 8 µM), 0.544.
Consider NCI-H2009, for which the relative viability stood at 0.994 with RO-3306 + Bortezomib (first compound 0.01 µM); 0.82 with RO-3306 + Bortezomib (first compound 0.03162 µM); 1 with RO-3306 + Bortezomib (first compound 0.1 µM); 1.06 with RO-3306 + Bortezomib (first compound 0.3162 µM); 1 in the experiment with RO-3306 + Bortezomib (first compound 1 µM); 0.91 in experiment [1] (first compound 0.8 µM). Further, the relative viability in experiment [1] (first compound 2.53 µM) came out at 0.891; in experiment [1] (first compound 8 µM), 0.929; in experiment [2] (first compound 0.8 µM) it was 1; in experiment [2] (first compound 2.53 µM), 0.878; in experiment [2] (first compound 8 µM) it was 0.787; in experiment [3] (first compound 0.8 µM), 1.26. In addition, the relative viability in experiment [3] (first compound 2.53 µM) was determined as 1.08; in experiment [3] (first compound 8 µM) it was 0.988; in experiment [4] (first compound 0.8 µM), 0.241; in experiment [4] (first compound 2.53 µM), 0.249; in experiment [4] (first compound 8 µM) it was 0.302.
In the case of NCI-H2023, the relative viability with RO-3306 + Bortezomib (first compound 0.01 µM) amounted to 1.01; with RO-3306 + Bortezomib (first compound 0.03162 µM), 0.795; with RO-3306 + Bortezomib (first compound 0.1 µM) it was 0.979; in the experiment with RO-3306 + Bortezomib (first compound 0.3162 µM), 1.13; with RO-3306 + Bortezomib (first compound 1 µM) it was 1.07; in experiment [1] (first compound 0.8 µM), 1. For the same cell line, the relative viability was determined as 0.899 in experiment [1] (first compound 2.53 µM); 0.831 in experiment [1] (first compound 8 µM); 0.921 in experiment [2] (first compound 0.8 µM); 0.638 in experiment [2] (first compound 2.53 µM); 0.535 in experiment [2] (first compound 8 µM); 0.957 in experiment [3] (first compound 0.8 µM). Further, the relative viability was determined as 0.73 in experiment [3] (first compound 2.53 µM); 0.66 in experiment [3] (first compound 8 µM); 0.547 in experiment [4] (first compound 0.8 µM); 0.434 in experiment [4] (first compound 2.53 µM); 0.369 in experiment [4] (first compound 8 µM).
NCI-H2085: the relative viability with RO-3306 + Bortezomib (first compound 0.01 µM) was 1.09; in the experiment with RO-3306 + Bortezomib (first compound 0.03162 µM), 0.956; with RO-3306 + Bortezomib (first compound 0.1 µM), 0.935; with RO-3306 + Bortezomib (first compound 0.3162 µM), 0.993; with RO-3306 + Bortezomib (first compound 1 µM), 1.04; in experiment [1] (first compound 0.8 µM) it was 1.12. In addition, the relative viability in experiment [1] (first compound 2.53 µM) came to 0.943; in experiment [1] (first compound 8 µM) it was 1.02; in experiment [2] (first compound 0.8 µM), 0.46; in experiment [2] (first compound 2.53 µM), 0.371; in experiment [2] (first compound 8 µM), 0.428; in experiment [3] (first compound 0.8 µM), 0.886. Also, the relative viability was determined as 0.725 in experiment [3] (first compound 2.53 µM); 0.885 in experiment [3] (first compound 8 µM); 0.226 in experiment [4] (first compound 0.8 µM); 0.238 in experiment [4] (first compound 2.53 µM); 0.204 in experiment [4] (first compound 8 µM).
On to NCI-H2087, for which the relative viability with RO-3306 + Bortezomib (first compound 0.01 µM) was 0.726; with RO-3306 + Bortezomib (first compound 0.03162 µM), 0.843; with RO-3306 + Bortezomib (first compound 0.1 µM), 0.729; with RO-3306 + Bortezomib (first compound 0.3162 µM), 0.947; with RO-3306 + Bortezomib (first compound 1 µM), 0.738; in experiment [1] (first compound 0.8 µM), 0.915. Further, the relative viability came to 0.82 in experiment [1] (first compound 2.53 µM); 0.793 in experiment [1] (first compound 8 µM); 0.17 in experiment [2] (first compound 0.8 µM); 0.146 in experiment [2] (first compound 2.53 µM); 0.205 in experiment [2] (first compound 8 µM); 1.15 in experiment [3] (first compound 0.8 µM). The relative viability was 0.909 in experiment [3] (first compound 2.53 µM); 0.971 in experiment [3] (first compound 8 µM); 0.72 in experiment [4] (first compound 0.8 µM); 0.713 in experiment [4] (first compound 2.53 µM); 0.74 in experiment [4] (first compound 8 µM).
Consider NCI-H2126, for which the relative viability with RO-3306 + Bortezomib (first compound 0.01 µM) came out at 1.14; with RO-3306 + Bortezomib (first compound 0.03162 µM) it was 1.18; with RO-3306 + Bortezomib (first compound 0.1 µM), 1.12; with RO-3306 + Bortezomib (first compound 0.3162 µM), 1.05; with RO-3306 + Bortezomib (first compound 1 µM), 1; in experiment [1] (first compound 0.8 µM), 1.26. The relative viability in experiment [1] (first compound 2.53 µM) worked out at 1.1; in experiment [1] (first compound 8 µM) it was 1.12; in experiment [2] (first compound 0.8 µM) it was 0.994; in experiment [2] (first compound 2.53 µM), 0.83; in experiment [2] (first compound 8 µM) it was 0.831; in experiment [3] (first compound 0.8 µM), 1.35. Further, the relative viability turned out to be 1.19 in experiment [3] (first compound 2.53 µM); 1.1 in experiment [3] (first compound 8 µM); 0.753 in experiment [4] (first compound 0.8 µM); 0.634 in experiment [4] (first compound 2.53 µM); 0.535 in experiment [4] (first compound 8 µM).
